For orientation: IC50 means the point on the concentration scale where inhibition reaches its midpoint. By inhibition is commonly meant the drop in the measured response relative to a control, in per cent. What is called GI50 is the concentration at which growth is held to half of that of the control. The low end stands for greater sensitivity of the cells, the high end for lower sensitivity of the cells.

The record followed here is patent US8153630B2, “Kinase inhibitors” (Miikana Therapeutics, Inc., priority 2004, dated 2012).

The target in experiment [1] is T1, recombinant Aurora A (Homo sapiens, UniProt O14965).
T1 construct: purchased Upstate, Lake Placid, N.Y
T1 sequence (O14965 1-403): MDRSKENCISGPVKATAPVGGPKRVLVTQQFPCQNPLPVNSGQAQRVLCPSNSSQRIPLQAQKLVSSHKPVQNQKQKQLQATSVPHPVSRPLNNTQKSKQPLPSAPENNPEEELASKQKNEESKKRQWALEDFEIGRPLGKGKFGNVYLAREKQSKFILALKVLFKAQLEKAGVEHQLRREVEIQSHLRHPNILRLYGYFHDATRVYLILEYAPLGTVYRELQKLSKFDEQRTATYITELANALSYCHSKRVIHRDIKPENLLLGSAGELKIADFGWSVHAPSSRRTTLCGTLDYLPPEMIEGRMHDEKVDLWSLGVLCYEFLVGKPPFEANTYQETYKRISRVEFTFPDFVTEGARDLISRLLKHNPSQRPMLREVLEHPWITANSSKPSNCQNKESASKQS
Put plainly: PanVera Z'-Lyte Aurora kinase assay. The following applies: Z'-Lyte Ser/Thr 1 peptide 2 μM, ATP 10 μM, 1 h. Type of experiment: biochemical. The procedure: Compounds 7-14 above were tested for their potency against recombinant Aurora A (Upstate, Lake Placid, N.Y.) using the PanVera Z'-Lyte kinase assay kit—Ser/Thr 1 peptide (Invitrogen, Carlsbad, Calif.). Assays were carried out in kinase assay buffer (50 mM HEPES, pH 7.5, 10 mM MgCl2, 5 mM EGTA, 0.05% Brij-35, 2 mM DTT). Test compounds were initially dissolved in DMSO at 100× the highest tested concentration, then serially diluted to 4× test concentrations in kinase assay buffer. Next, Aurora A (final concentration 200-500 ng/mL), Z′-Lyte Ser/Thr 1 peptide (final concentration 2 μM) and ATP (final concentration 10 μM) were added according to the manufacturer's instructions. Assays were carried out in half-area 96-well white polystyrene assay plates (Corning, Corning, N.Y.) in a final volume of 20 μL. The reaction was allowed to proceed for 1 h at room temperature in the dark, at which point the development reagent and stop reagent were added according to the manufacturer's instructions. Coumarin (Ex. 400 nm, Em. 465 nm) and fluorescein (Ex. 400 nm, Em. 565 nm) fluorescence values were measured on a SpectraFluor Plus plate reader (Tecan, Durham, N.C.). The emission ratio (coumarin/fluorescein) was determined and used to calculate the percent phosphorylation for each well. Wells containing substrate but no kinase and wells containing a phosphopeptide control were used to set 0% and 100% phosphorylation values, respectively. Typically 20-40% of the substrate was phosphorylated in wells without inhibitor. Dose-response curves of relative Aurora A activity vs. inhibitor concentration were plotted with Grafit (Erithacus Software, Horley, Surrey, UK) and used to calculate IC50 values.

In experiment [2] the target is Aurora B kinase (Homo sapiens, UniProt Q96GD4). Put plainly: Aurora B (Aurora 1) inhibition assay. Type of experiment: biochemical. The following applies: compound concentration 100 μM; ATP 50 μM, 16 h; read-out: inhibition of the Aurora B enzyme.
In experiment [3] the test system is HCT 116 Cells. As to the kind of experiment: Aurora kinase whole cell cytotoxicity assay: Sulforhodamine B. The note with it: Homo sapiens, HCT116, SRB staining, 96 hours incubation. Type of experiment: cell-based. The procedure:
Human tumour-derived cell lines, HCT116 or MCF7 (ATCC) were plated in a 96 well plate in DMEM containing 10% fetal bovine serum and 2 mM L-glutamine at a density of 500 HCT116 cells or 1,000 MCF7 cells per well and incubated at 37° C., 5% CO2, for 24 hours prior to the addition of experimental compounds. Compounds were added using the dilution series indicated to duplicate plates and the cells were incubated in media plus compound for 96 hours. An additional plate was fixed in 10% TCA at the time of the addition of compound to provide a measurement of the cell population at time zero, the time of drug addition. Following the 96 hour incubation, cells were fixed in situ by gently aspirating off the culture media and then adding 50 ul of ice cold 10% TCA per well and incubation at 4° C. for 60 minutes. The plates were washed with tap water five times and allowed to air dry for 5 minute. 50 ul of a 0.4% (w/v) Sulforhodamine B solution in 1% (v/v) acetic acid was added per well and the cells were incubated for 30 minutes at room temperature. Following staining, plates were washed four times with 1% acetic acid to remove any unbound dye and then allowed to air dry for 5 minutes. The stain was solubilized with 100 ul of 10 mM Tris pH 10.5 per well and placed on an orbital rotator for 5 minutes. The absorbance was read at 570 nm. Percentage growth was calculated using the absorbance readings from the time zero plate (Tz) and the dilution series plate […] which included a column of cells grown in media without compound as a control (C) using the formulas: [(Ti−Tz)/(C−Tz)]×100 for concentrations for which Ti>/=Tz [(Ti−Tz)/Tz]×100 for concentrations for which Ti<Tz.
Three dose response parameters were calculated for each experimental agent. Growth inhibition of 50% (GI50) was calculated from [(Ti−Tz)/(C−Tz)]×100=50, which was the drug concentration resulting in a 50% reduction in the net protein increase (as measured by SRB staining) in control cells during the drug incubation. The drug concentration resulting in total growth inhibition (TGI) was calculated from Ti=Tz. The LC50 (concentration of drug resulting in a 50% reduction in the measured protein at the end of the drug treatment as compared to that at the beginning) indicating a net loss of cells following treatment ws calculated from [(Ti−Tz)/Tz]×100=−50. Values are calculated for each of these three parameters if the level of activity was reached; however, if the effect was not reached or was exceeded, the value for that parameter is expressed as greater or less than the maximum or minimum concentration tested.

Chain of Aurora B kinase (Q96GD4 whole entry): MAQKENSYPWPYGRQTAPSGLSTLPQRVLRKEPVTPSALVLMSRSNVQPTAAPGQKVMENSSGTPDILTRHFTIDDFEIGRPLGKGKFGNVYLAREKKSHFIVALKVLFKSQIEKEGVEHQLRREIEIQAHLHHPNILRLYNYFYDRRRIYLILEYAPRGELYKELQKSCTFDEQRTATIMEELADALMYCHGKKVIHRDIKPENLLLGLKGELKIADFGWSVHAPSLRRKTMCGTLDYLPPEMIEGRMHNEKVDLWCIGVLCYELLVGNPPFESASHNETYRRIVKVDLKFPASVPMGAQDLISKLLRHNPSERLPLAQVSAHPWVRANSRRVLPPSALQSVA

Turning to `Cc1cc(Nc2nc(Sc3ccc(NC(=O)C4CC4)cc3)nc(C(=O)NCCN3CCOCC3)c2N)n[nH]1` [Compound 52, N-(2-Morpholin-4-ylethyl) 2-(4-cyclopropanecarboxamidophenylsulfanyl)-5-amino-6-(5-methylpyrazol-3-ylamino)-4-pyrimidinecarboxamide], the IC50 in experiment [1] was less than 0.1 µM. For the same molecule, the inhibition at 100 µM in experiment [2] came out at 100%. The GI50 in experiment [3] was 0.1 to 1 µM.
On to `CCOC(=O)c1nc(Sc2ccc(NC(=O)C3CC3)cc2)nc(Nc2cc(C)[nH]n2)c1N` [Compound 11, Ethyl 2-(4-cyclopropanecarboxamidophenylsulfanyl)-5-amino-6-(5-methylpyrazol-3-ylamino)-4-pyrimidinecarboxylate], for which the IC50 in experiment [1] is less than 0.1 µM. The inhibition at 100 µM in experiment [2] was found to be 100%. Also, in experiment [3], the GI50 is 0.1 to 1 µM.
Regarding `Cc1cc(Nc2nc(Sc3ccc(NC(=O)C4CC4)cc3)nc(C(=O)NC3CCN(C)CC3)c2N)n[nH]1` [Compound 64, N-(1-Methylpiperidin-4-yl) 2-(4-cyclopropanecarboxamidophenylsulfanyl)-5-amino-6-(5-methylpyrazol-3-ylamino)-4-pyrimidinecarboxamide], in experiment [1], the IC50 is less than 0.1 µM. Moreover, the GI50 in experiment [3] fell in the range of 0.1 to 1 µM.
In the same order, the values of `Cc1cc(Nc2nc(Sc3ccc(NC(=O)C4CC4)cc3)nc(C(=O)OCC[Si](C)(C)C)c2N)n[nH]1` [Compound 67] are 0.1 to 1 µM and 1 to 10 µM.
